This note sets out measurements from patent US10723777B2, “Peptide having anti-obesity and anti-diabetes efficacy and use thereof” (CAREGEN CO., LTD., priority 2016, dated 2020).

For experiment [1], the system named is pre-adipocytes 3T3-L1 cells. Nature of the experiment: Inhibition of fat accumulation using pre-adipocyte (Oil Red O staining). In kind it is cell-based, mouse. As to conditions: 3T3-L1, differentiation induced 10 days, various concentrations. The method, then: The pre-adipocytes 3T3-L1 cells were incubated until becoming confluent, and then incubated for two days after treatment with various concentrations of the peptides in a differentiation medium containing 10 μg/ml insulin, 0.1 μM dexamethasone, and 0.5 μM IBMX. Thereafter, the medium was exchanged every two days to a medium containing 10 μg/ml insulin. After differentiation was induced for 10 days, the generation of droplet in the cells was confirmed by Oil Red 0 staining.
The prepared 3T3-L1 pre-adipocytes were washed with PBS, fixed with 3.7% formalin for 1 hour, were washed with 60% isopropanol, and then were dyed with Oil Red O solution at room temperature for 20 minutes. After completion of dyeing, the Oil Red O solution was removed, the cells were washed three times with distilled water, and then the dyed cells were observed under a phase contrast microscope. For quantitative analysis, fats were extracted from the cells using 100% isopropanol, and the cells were transferred in an amount of 200 μl/well into 96-well plates and measured for optical density at 500 nm using an ELISA reader.

The subject of experiment [2] is adipogenic markers (PPARγ, ACC, and aP2) in 3T3-L1 cells. As to the kind of experiment: Suppression of expression of genes involved in adipogenesis (RT-PCR). In kind it is cell-based, mouse. As to conditions: TNFα 100 ng/ml; for expression levels of the adipogenic marker aP2 (gene): peptides/peptide complexes 0.1, 1, 10 μg/ml. The method, then: 3T3-L1 cells (pre-adipocytes) were seeded at a density of 3×10^5 cells/well into 6-well plates. After incubating for 24 hours, the cells were incubated for 14 days in a 37° C. incubator after treatment with various concentrations (0.1, 1, and 10 μg/ml) of the peptides. Thereafter, the cells were harvested and treated with an RNA extraction solution (Easy Blue, Intron) to prepare for RNA from which cDNA was then synthesized using an RT premix (Intron). PCR was performed using primers for the adipogenic markers (PPARγ, ACC, and aP2), and a PCR premix (Intron). Next, the PCR products were each loaded in an amount of 5 μl into a 1% agarose gel and electrophoresis was performed, and then bands were identified in a Gel-Doc.
Target-specific primer sequences for PCR of adipogenic markers are as follows: […]

Experiment [3] relates to DB/DB diabetes-induced mice. As to the kind of experiment: Blood sugar levels over time in DB/DB diabetes-induced mice administered with the peptides. In kind it is in vivo, mouse. The following applies: for blood sugar levels: High-Fat Diabetes DB/DB mice; for blood sugar levels (course over time): DB/DB mice. The method, then: In addition, after starvation for 16 hours, DB/DB diabetes-induced mice were fed for 30 minutes and then administered with the peptides. Blood sugar levels were measured over times and the results are shown in FIGS. 22 and 23 and Tables 7 and 8.

For experiment [4], the system named is DIO C57BL/6 mouse fed high-fat diet. As to the kind of experiment: Adipogenesis-suppressive and lipolysis-promotive effect in DIO (diets induced obesity) mice. In kind it is in vivo. The method, then: Obesity-induced Models DIO (diets induced obesity), which had become obese by feeding high-fat diets to normal C57BL/6 mouse, were used for the anti-obesity experiment in which 5 μg/ml of TNFα was used as a positive control drug. For a control, a general diet, not a high-fat diet, was fed. In this experiment, a high-fat diet was fed for 12 weeks, while the peptide complexes or the positive control drug were applied. During the experiment, the weight loss was confirmed.
TNFα and the anti-obesity active compounds were intraperitoneally injected at 3:00 to 4:00 pm every week for 12 weeks. Body weights and dietary amounts were measured just before the first drug injection, and then measured at weekly intervals.
Blood samples were collected from the tail vein after the end of the drug injection experiment, and then blood sugar levels were measured using Accu-Check Active (Roche) and cholesterol levels were analyzed using Cholesterol calculation Kit (BioVision).
Adipose tissues are classified into white fat and brown fat depending on the color and are classified into subcutaneous fat, abdominal fat, mesentery fat (visceral fat), and epididymal fat depending on the site. After dissection, each fat was extracted. For histological examination, the fats were fixed with 10% neutral buffered formalin, embedded in paraffin blocks, cut into […] sections, and dyed with hematoxylin and eosin.
To analyze the degree of phosphorylation of the lipolytic factor HSL, fluorescent staining was carried out using an anti-pHSL antibody. The tissue samples were prepared, mounted on glycerine jell mounting media, and covered with a cover glass. The tissues were taken with a digital camera built into a microscope (Nikon, TS100) and images were observed under the microscope.

For experiment [5] the test system is unchanged. The description is as above. In kind it is in vivo. As to conditions: micro-CT; HDF (10 weeks) + treatment (8 weeks).
The mark [6] stands for this setting: peptide complexes 0.1, 1, 10 μg/ml.

For the substance ACYLPHPWFC (Peptide 4) [SEQ ID NO: 4], the “degree of fat accumulation in the cells (Oil Red O staining)” value in experiment [1] is “decreased”. The “expression levels of the adipogenic marker aP2 (gene)” value in experiment [2] was “decreased”. Moreover, the blood sugar levels came out at 249 mg/dL in experiment [3] (30 minutes); 229 mg/dL in experiment [3] (60 minutes); 215 mg/dL in experiment [3] (120 minutes); 180 mg/dL in experiment [3] (240 minutes); 165 mg/dL in experiment [3] (300 minutes); 222 mg/dL in experiment [3] (Fasting). For the same substance, the “blood sugar levels (course over time)” value in experiment [3] is recorded as “lowered in a time-dependent manner”.

For KGACTGWMA (Peptide 2) [SEQ ID NO: 2], the “degree of fat accumulation in the cells (Oil Red O staining)” value in experiment [1] is recorded as “decreased”. Besides, the “expression levels of the adipogenic marker aP2 (gene)” value in experiment [2] is listed as “decreased”. For the same substance, the blood sugar levels in experiment [3] (30 minutes) was found to be 219 mg/dL; in experiment [3] (60 minutes), 231 mg/dL; in experiment [3] (120 minutes), 174 mg/dL; in experiment [3] (240 minutes) it was 158 mg/dL; in experiment [3] (300 minutes), 152 mg/dL; in experiment [3] (Fasting), 181 mg/dL. The “blood sugar levels (course over time)” value in experiment [3] is given as “lowered in a time-dependent manner”.

Take TNFα: in experiment [2] (setting [6]), the “expression levels of the adipogenic marker ACC (gene)” value was “decreased”. For the same substance, in experiment [2] (setting [6]), the “expression levels of the adipogenic marker PPARγ (gene)” value is recorded as “decreased”. In addition, the “expression levels of the adipogenic marker aP2 (gene)” value in experiment [2] is on record as “decreased”. For the same substance, the body weight in experiment [4] (Week 0, high-fat diet) is 22.41 g; in experiment [4] (Week 1, high-fat diet), 23.00 g; in experiment [4] (Week 2, high-fat diet), 26.12 g; in experiment [4] (Week 3, high-fat diet), 27.45 g; in experiment [4] (Week 4, high-fat diet), 30.51 g; in experiment [4] (Week 5, high-fat diet), 32.76 g. The body weight in experiment [4] (Week 6, high-fat diet) came to 33.49 g; in experiment [4] (Week 7, high-fat diet) it was 35.14 g; in experiment [4] (Week 8, high-fat diet) it was 37.15 g; in experiment [4] (Week 9, high-fat diet), 38.97 g; in experiment [4] (Week 10, high-fat diet) it was 40.39 g; in experiment [4] (Week 11, high-fat diet), 41.35 g. This substance also displayed a body weight in experiment [4] (Week 12, high-fat diet) of 43.91 g. Moreover, the “body weight in percentage” value in experiment [4] (Week 0, high-fat diet) is on record as 100%; in experiment [4] (Week 1, high-fat diet), 102.6%; in experiment [4] (Week 2, high-fat diet), 116.6%; in experiment [4] (Week 3, high-fat diet), 122.5%; in experiment [4] (Week 4, high-fat diet) it was 136.1%; in experiment [4] (Week 5, high-fat diet), 146.2%. The “body weight in percentage” value in experiment [4] (Week 6, high-fat diet) stood at 149.4%; in experiment [4] (Week 7, high-fat diet) it was 156.8%; in experiment [4] (Week 8, high-fat diet), 165.8%; in experiment [4] (Week 9, high-fat diet), 173.9%; in experiment [4] (Week 10, high-fat diet), 180.2%; in experiment [4] (Week 11, high-fat diet), 184.5%. Moreover, the “body weight in percentage” value in experiment [4] (Week 12, high-fat diet) was found to be 195.9%. In experiment [4] (micro-CT, HDF (10 weeks) + treatment (8 weeks)), the “Subcutaneous Fat” value amounted to 1332.08 mm^3. The “Total Fat” value in experiment [5] stood at 4165.80 mm^3. The “Total Volume” value in experiment [5] is 8240.67 mm^3. The “Visceral Fat” value in experiment [5] was found to be 2833.72 mm^3.
